Results published in ChEMBL document CHEMBL1201862, “PubChem BioAssay data set” (2004).
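The compound was tested at five concentrations on cells cultured in 96-well plates, with a 48-hour exposure period. GI50 marks 50% less growth.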 The source made the active and inactive calls. Rule as the data show it: active = GI50 up to about 1.1 µM and inactive = higher.

Columns and labels:
Test in all cases: NCI tumour cell line growth inhibition, 48 h
786-0 = tested on: 786-0
A549 = tested on: A549
ACHN = tested on: ACHN
CCRF-CEM = tested on: CCRF-CEM
COLO 205 = tested on: COLO 205
DU-145 = tested on: DU-145
HCC 2998 = tested on: HCC 2998
HCT-116 = tested on: HCT-116
HCT-15 = tested on: HCT-15
HL-60 = tested on: HL-60
HOP-62 = tested on: HOP-62
HOP-92 = tested on: HOP-92
HT-29 = tested on: HT-29
Hs-578T = tested on: Hs-578T
IGROV-1 = tested on: IGROV-1
K562 = tested on: K562
KM12 = tested on: KM12
LOX IMVI = tested on: LOX IMVI
M14 = tested on: M14
MCF7 = tested on: MCF7
MDA-MB-231 = tested on: MDA-MB-231
MDA-MB-435 = tested on: MDA-MB-435
MDA-N = tested on: MDA-N
MOLT-4 = tested on: MOLT-4
Malme-3M = tested on: Malme-3M
NCI-H226 = tested on: NCI-H226
NCI-H23 = tested on: NCI-H23
NCI-H460 = tested on: NCI-H460
NCI-H522 = tested on: NCI-H522
NCI/ADR-RES = tested on: NCI/ADR-RES
OVCAR-3 = tested on: OVCAR-3
OVCAR-4 = tested on: OVCAR-4
OVCAR-5 = tested on: OVCAR-5
OVCAR-8 = tested on: OVCAR-8
PC-3 = tested on: PC-3
RPMI-8226 = tested on: RPMI-8226
RXF 393 = tested on: RXF 393
SF-268 = tested on: SF-268
SF-295 = tested on: SF-295
SF-539 = tested on: SF-539
SK-MEL-28 = tested on: SK-MEL-28
SK-MEL-2 = tested on: SK-MEL-2
SK-MEL-5 = tested on: SK-MEL-5
SK-OV-3 = tested on: SK-OV-3
SN12C = tested on: SN12C
SNB-19 = tested on: SNB-19
SNB-75 = tested on: SNB-75
SR = tested on: SR
SW-620 = tested on: SW-620
T47D = tested on: T47D
TK-10 = tested on: TK-10
U-251 = tested on: U-251
UACC-257 = tested on: UACC-257
UO-31 = tested on: UO-31

Question: What does the source list for `CSc1nc2c(=O)n(-c3ccccc3)c(=S)n(-c3ccccc3)c2s1`?
Answer: GI50 (786-0): 25.9 µM (inactive); GI50 (A549): > 100 µM (inactive); GI50 (ACHN): 45.4 µM (inactive); GI50 (CCRF-CEM): > 100 µM (inactive); GI50 (COLO 205): > 100 µM (inactive); GI50 (DU-145): > 100 µM (inactive); GI50 (HCC 2998): > 100 µM (inactive); GI50 (HCT-116): > 100 µM (inactive); GI50 (HCT-15): > 100 µM; GI50 (HL-60): > 100 µM (inactive); GI50 (HOP-62): 42 µM (inactive); GI50 (HOP-92): 25.4 µM (inactive); GI50 (HT-29): > 100 µM (inactive); GI50 (Hs-578T): 29.2 µM (inactive); GI50 (IGROV-1): > 100 µM (inactive); GI50 (K562): > 100 µM (inactive); GI50 (KM12): 49 µM (inactive); GI50 (LOX IMVI): 82 µM (inactive); GI50 (M14): 70 µM (inactive); GI50 (MCF7): > 100 µM (inactive); GI50 (MDA-MB-231): 49.2 µM (inactive); GI50 (MDA-MB-435): > 100 µM (inactive); GI50 (MDA-N): > 100 µM (inactive); GI50 (MOLT-4): 63.2 µM (inactive); GI50 (Malme-3M): 64.1 µM (inactive); GI50 (NCI-H226): 31.1 µM (inactive); GI50 (NCI-H23): > 100 µM (inactive); GI50 (NCI-H460): > 100 µM (inactive); GI50 (NCI-H522): > 100 µM (inactive); GI50 (NCI/ADR-RES): 85.1 µM (inactive); GI50 (OVCAR-3): 67 µM (inactive); GI50 (OVCAR-4): 71.4 µM (inactive); GI50 (OVCAR-5): > 100 µM (inactive); GI50 (OVCAR-8): > 100 µM (inactive); GI50 (PC-3): > 100 µM (inactive); GI50 (RPMI-8226): > 100 µM (inactive); GI50 (RXF 393): 34.4 µM (inactive); GI50 (SF-268): 65 µM (inactive); GI50 (SF-295): 97.5 µM (inactive); GI50 (SF-539): 39.9 µM (inactive); GI50 (SK-MEL-28): > 100 µM (inactive); GI50 (SK-MEL-2): > 100 µM (inactive); GI50 (SK-MEL-5): > 100 µM (inactive); GI50 (SK-OV-3): 81.3 µM (inactive); GI50 (SN12C): 37.9 µM (inactive); GI50 (SNB-19): 14.2 µM (inactive); GI50 (SNB-75): 41.6 µM (inactive); GI50 (SR): > 100 µM (inactive); GI50 (SW-620): > 100 µM (inactive); GI50 (T47D): > 100 µM (inactive); GI50 (TK-10): 42.1 µM (inactive); GI50 (U-251): 38.5 µM (inactive); GI50 (UACC-257): > 100 µM (inactive); GI50 (UO-31): > 100 µM (inactive)
